Experimental data as given in article PMC4212957, “The serodominant secreted effector protein of Salmonella, SseB, is a strong CD4 antigen containing an immunodominant epitope presented by diverse HLA class II alleles” (Immunology, 2014).

Tests used:
[1] = system: draining lymph node cells of HLA-DR1 transgenic mice; experiment: Murine IFN-γ ELISpot, HLA-DR1 transgenic mice primed with SseB; conditions: mouse, in vivo
Description: (§1) Mice transgenic for HLA-DR1 (that is, HLA-DRA1*0101/HLA-DRB1*0101) and HLA-DR4 (that is, HLA-DRA1*0101/HLA-DRB1*0401)[24]–[26] were bred and housed in the Centre for Biological Services at the Hammersmith campus, Imperial College London, UK, in accordance with Home Office regulations and College ethics review. Both transgenic lines are maintained on a C57BL/6 background as homozygotes for knockout of murine MHC Class II H2-Aβ.[27]
(§2) HLA-DR1 or HLA-DR4 transgenic mice were primed, by subcutaneous injection into the footpad, with 25 μg of recombinant SseB protein administered as a 1 : 1 emulsion with TiterMax® Gold (CytRx Corporation, Los Angeles, CA). Ten days after priming, popliteal draining lymph nodes were harvested and stimulated, in triplicate, at 2 × 10^5 cells per well with 25 μg of SseB peptide or recombinant protein in pre-coated murine IFN-γ ELISpot plates (2BScientific, Upper Heyford, Oxfordshire, UK). Culture medium was RPMI-1640 containing 2 mM L-glutamine, 50 U/ml penicillin G, 50 μg/ml streptomycin sulphate, 50 μM β-mercaptoethanol and 10% fetal calf serum. Cells were cultured at 37° and in 5% CO2 for 72 hr before assay development using a biotinylated anti-IFN-γ antibody, a horseradish peroxidase detection antibody and TMB substrate (2BScientific). Developed plates were left to dry before spot counting using an AID ELISpot reader (Autoimmun Diagnostika GMBH). Positive epitopes for a given transgenic line were defined as those where more than half of assayed animals gave a greater number of spot-forming cells than 2 SD over the mean of the no protein/peptide control.
(§3) Fig 1 Definition of HLA-DR specific T-cell epitopes in DR1 and DR4 transgenic mice. (a) HLA-DR1 (n = 5) and (b) HLA-DR4 (n = 6) mice were footpad primed with ssEB protein in combination with TiterMax® Gold adjuvant. Draining lymph node (DLN) cells were assayed by ELISpot at day 10 for interferon-γ (IFN-γ) T-cell responses to ssEB peptides and protein. A peptide was defined as containing a T-cell epitope for DR1 or DR4 HLA molecules if more than half of the mice assayed gave a greater number of spot-forming cells than 2 SD over the mean of the no peptide/protein control. The 2 SD value for each transgenic line is shown by a dotted line.

HLA-DRB1*01:01 = HLA-DRB1*01:01 (Homo sapiens, UniProt P01903+P01911, A100R/D57E/F55L/F60I/F76Y/I96L/L162R/M171V/P40L/Q125E/R42F/V115G/Y59C); conditions: competitive ELISA; ratio IC50 of peptide / IC50 of reference peptide HA 306–318; lower = higher affinity; ratio 20 or less high, 20–100 moderate; three independent experiments
HLA-DRB1*04:01 = HLA-DRB1*04:01 (Homo sapiens, UniProt P01903+P01911, A100K/A169T/F76Y/I96L/K127E/L162R/M171V/N62H/P40V/Q125Y/R42H/S133A/S149N/S66Y/V115G/V209L/W38E); conditions: competitive ELISA; ratio IC50 of peptide / IC50 of reference peptide HA 306–318; lower = higher affinity; ratio 20 or less high, 20–100 moderate; three independent experiments
HLA-DRB1*07:01 = HLA-DRB1*07:01 (Homo sapiens, UniProt P01903+P01911, A100R/A102G/A103Q/D57E/D86V/E43K/F76Y/K127E/L162R/M171V/P40G/Q125H/Q99D/R33Q/R42Y/R54Q/S133A/S66F/T210M/V115G/Y107V/Y59L/Y89S); conditions: competitive ELISA; ratio IC50 of peptide / IC50 of reference peptide HA 306–318; lower = higher affinity; ratio 20 or less high, 20–100 moderate; three independent experiments
HLA-DRB1*11:01 = HLA-DRB1*11:01 (Homo sapiens, UniProt P01903+P01911, A100R/A169T/A87E/I96F/K41T/L162R/M171V/P40S/Q125H/Q178H/Q39Y/Q99D/R42S/S66Y/T262R/V115G/W38E); conditions: competitive ELISA; ratio IC50 of peptide / IC50 of reference peptide HA 306–318; lower = higher affinity; ratio 20 or less high, 20–100 moderate; three independent experiments
[2] = system: draining lymph node cells of HLA-DR4 transgenic mice; experiment: Murine IFN-γ ELISpot, HLA-DR4 transgenic mice primed with SseB; conditions: mouse, in vivo
Description: as §1, §2, §3

Sequence of HLA-DRB1*11:01 (P01903 26-254, other chains not shown): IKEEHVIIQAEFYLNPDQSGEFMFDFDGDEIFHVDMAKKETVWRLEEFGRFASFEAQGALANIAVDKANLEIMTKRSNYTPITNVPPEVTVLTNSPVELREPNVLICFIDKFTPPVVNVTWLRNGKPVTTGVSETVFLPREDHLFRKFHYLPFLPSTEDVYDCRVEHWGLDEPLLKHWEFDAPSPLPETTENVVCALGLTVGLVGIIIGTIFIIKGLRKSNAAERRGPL

| Substance | IFN-γ ELISpot recall response / CD4 epitope in HLA-DR1 transgenic mice [1] | Relative binding affinity of peptide to HLA-DR molecules DRB1*0101 (HLA-DRB1*01:01) | Relative binding affinity of peptide to HLA-DR molecules DRB1*0401 (HLA-DRB1*04:01) | Relative binding affinity of peptide to HLA-DR molecules DRB1*0701 (HLA-DRB1*07:01) | Relative binding affinity of peptide to HLA-DR molecules DRB1*1101 (HLA-DRB1*11:01) | IFN-γ ELISpot recall response / CD4 epitope in HLA-DR4 transgenic mice [2] |
| --- | --- | --- | --- | --- | --- | --- |
| 2: SseB overlapping library peptide, residues 11–30 (QNPIVFKNSFGVSNADTGSQ) [Peptide 2] | carry HLA-DR1 restricted immunodominant CD4 epitopes | 300 | 9 | 14 | > 278 |  |
| 11: SseB overlapping library peptide, residues 101–120 (EDVIKYMRDNGILIDGMTID) [Peptide 11] | carry HLA-DR1 restricted immunodominant CD4 epitopes | 61 | 17 | 2 | > 278 | CD4 epitopes detected |
| AVLTQLTGLISKWGEISSMIAQKTYS [Peptide 18] | carry HLA-DR1 restricted immunodominant CD4 epitopes | 2 | 2 | 12 | 7 | not DR4 |
